The test system of assay [1] is cows. Briefly: Cyclic oral feeding of glycerol to cows, milk component concentrations (Example 8). In kind it is in vivo, cow. The note with it: for Fat in Milk / Lactose in Milk / Total Solids in Milk / True Protein in Milk: oral. Here is the method: To determine the weight percent total solids, wet basis, in a sample, the actual weight of total solids is determined by analyzing the sample in accordance with Method #925.23 (33.2.09) of Official Methods of Analysis, Association of Official Analytical Chemists (AOAC) (16th Ed., 1995). The weight percent total solids, wet basis, is then calculated by dividing the actual weight of total solids by the actual weight of the sample. The weight percent of true protein, wet basis, for a particular sample is calculated after first determining the wet basis weight percent of total Kjeldahl nitrogen and the wet basis weight percent of non-protein nitrogen in the sample. The wet basis weight percent of total Kjeldahl nitrogen in the sample is determined using the method referenced above. The wet basis weight percent of non-protein nitrogen (NPN) in the sample is determined in accordance with Method #991.21 (33.2.12) of Official Methods of Analysis, Association of Official Analytical Chemists (AOAC) (16th Ed., 1995). The weight percent of true protein, wet basis, in the sample is then determined by subtracting the wet basis weight percent of non-protein nitrogen in the sample from the wet basis weight percent of total Kjeldahl nitrogen in the sample. To determine the weight percent lactose, wet basis, in a liquid sample, the weight of the liquid sample is first determined. The actual weight of lactose in the liquid sample may then be determined using analysis kit number 176-303, that is available from Boehringer-Mannheim of Indianapolis, Ind. in accordance with the procedural instructions included with analysis kit number 176-303. The weight percent lactose, wet basis, in the liquid sample is then calculated by dividing the actual weight of lactose in the liquid sample by the actual weight of the liquid sample. To determine the weight percent fat, wet basis, in a sample, the actual weight of fat in the sample is determined in accordance with Method #974.09 (33.7.18) of Official Methods of Analysis, Association of Official Analytical Chemists (AOAC) (16th Ed., 1995). The weight percent fat, wet basis, is then calculated by dividing the actual weight of fat in the sample by the actual weight of the sample. In Example 8, glycerol was periodically fed orally to several test cows. Period 1 lasted from week 1-3, Period 2 lasted from week 4-6, and Period 3 lasted from week 7-9, with week 0 being the start of the test period in which no glycerol was provided. The results presented in Table 7 below are averages for particular components for milk produced from each of the test animals.

For assay [2], the system named is cows. Briefly: Abomasal infusion of sorbitol in cows, repeat trial with different cows (Example 3). The class given is in vivo, cow. The note with it: for Fat / Lactose / Non-Protein Nitrogen / Total Solids / True Protein: 100 g/cow/day abomasal, 3 cows. As to the method:
To determine the weight percent total solids, wet basis, in a sample, the actual weight of total solids is determined by analyzing the sample in accordance with Method #925.23 (33.2.09) of Official Methods of Analysis, Association of Official Analytical Chemists (AOAC) (16th Ed., 1995). The weight percent total solids, wet basis, is then calculated by dividing the actual weight of total solids by the actual weight of the sample. The weight percent of true protein, wet basis, for a particular sample is calculated after first determining the wet basis weight percent of total Kjeldahl nitrogen and the wet basis weight percent of non-protein nitrogen in the sample. The wet basis weight percent of total Kjeldahl nitrogen in the sample is determined using the method referenced above. The wet basis weight percent of non-protein nitrogen (NPN) in the sample is determined in accordance with Method #991.21 (33.2.12) of Official Methods of Analysis, Association of Official Analytical Chemists (AOAC) (16th Ed., 1995). The weight percent of true protein, wet basis, in the sample is then determined by subtracting the wet basis weight percent of non-protein nitrogen in the sample from the wet basis weight percent of total Kjeldahl nitrogen in the sample. To determine the weight percent lactose, wet basis, in a liquid sample, the weight of the liquid sample is first determined. The actual weight of lactose in the liquid sample may then be determined using analysis kit number 176-303, that is available from Boehringer-Mannheim of Indianapolis, Ind. in accordance with the procedural instructions included with analysis kit number 176-303. The weight percent lactose, wet basis, in the liquid sample is then calculated by dividing the actual weight of lactose in the liquid sample by the actual weight of the liquid sample. To determine the weight percent fat, wet basis, in a sample, the actual weight of fat in the sample is determined in accordance with Method #974.09 (33.7.18) of Official Methods of Analysis, Association of Official Analytical Chemists (AOAC) (16th Ed., 1995). The weight percent fat, wet basis, is then calculated by dividing the actual weight of fat in the sample by the actual weight of the sample. In this example, sorbitol was abomasally infused into three different cows at a rate of 100 grams of sorbitol per cow per day during a 14 day test period. The sorbitol rations were mixed with water to facilitate infusion. The rations provided to the cows during the period extending from day 0, prior to abomasal infusion of sorbitol, through day 14 of the test period were the same. The only difference in feeding of the cows between day 0 and days 1-14 of the test period were that during days 1-14 the cows were abomasally infused with the dosage of 100 grams of sorbitol per cow per day. Milk from the three cows was collected and analyzed prior to infusion (on day 0) and also was collected and analyzed on the third, seventh and fourteenth day of the test period. The results presented in Table 2 below for each milk component for each particular day are averages for the milk collected from the three different cows. The trial of Example 2 was repeated in Example 3 several months later using three different cows. All of the test conditions described above for Example 2 were repeated in Example 3, with the exception of use of different cows. The results of the second trial are listed in Table 3 below: The net change for the different milk components presented in Table 3 was calculated by averaging the results of days 3, 7 and 14 for a particular milk component and subtracting the results presented for day 0 for the particular milk component. The results of Table 3 illustrate that, on average, the abomasal infusion of sorbitol caused a net increase in the amount of fat and total solids in the milk of the test cattle. […]

Where [3] appears, read: Period 1 (Fed Glycerol), weeks 1-3.
Where [4] appears, read: Period 3 (Fed Glycerol), weeks 7-9.
Setting [5] is: milk, average of days 3, 7, 14 minus day 0.

`OCC(O)CO` [glycerol]: the “fat, lactose, or total solids content of the milk (conclusion in words)” value in assay [1] (cyclic oral feeding) was “no increase or essentially no increase”. For the same compound, in assay [1] (setting [3]), the “Fat in Milk” value came out at 3.06 wt %, the “Lactose in Milk” value amounted to 4.97 wt %, the “Total Solids in Milk” value is 11.38 wt % and the “True Protein in Milk” value was determined as 2.64 wt %. In assay [1] (setting [4]), the “Fat in Milk” value is 3.22 wt %, the “Lactose in Milk” value amounted to 4.80 wt %, the “Total Solids in Milk” value was 11.43 wt % and the “True Protein in Milk” value is on record as 2.69 wt %.
Turning to `OC[C@@H](O)[C@@H](O)[C@H](O)[C@@H](O)CO` [sorbitol], the “amount of fat and total solids in the milk (conclusion in words)” value in assay [2] (abomasal infusion, 14 day test period, on average) is listed as “net increase”. Also, in assay [2] (milk, Day 3), the Fat was 4.22 Wt %, the Lactose is listed as 4.80 Wt. %, the “Non-Protein Nitrogen” value is given as 0.23 Wt. % and the “Total Solids” value is listed as 12.95 Wt. %. Also, in assay [2] (milk, Day 3), the “True Protein” value is on record as 3.21 Wt. %. For the same compound, in assay [2] (milk, Day 7), the Fat came out at 3.53 Wt %, the Lactose amounted to 5.12 Wt. %, the “Non-Protein Nitrogen” value is 0.27 Wt. % and the “Total Solids” value stood at 12.26 Wt. %. Further, the “True Protein” value in assay [2] (milk, Day 7) is on record as 2.89 Wt. %. Further, in assay [2] (milk, Day 14), the Fat was 3.81 Wt %, the Lactose stood at 5.80 Wt. %, the “Non-Protein Nitrogen” value is 0.23 Wt. % and the “Total Solids” value amounted to 12.55 Wt. %. Further, the “True Protein” value in assay [2] (milk, Day 14) is recorded as 3.22 Wt. %. In assay [2] (setting [5]), the “Fat, Net Change” value is “+0.38 Wt %”; the “Lactose, Net Change” value is “+0.39 Wt. %”; the “Non-Protein Nitrogen, Net Change” value is “no net change”; the “Total Solids, Net Change” value is on record as “+0.41 Wt. %”. Besides, in assay [2] (setting [5]), the “True Protein, Net Change” value was −0.03 Wt. %. In assay [2] (milk, days 3 and 14 versus day 0), the “increase of true protein content if the results of day 7 were eliminated from the net change” value is “about 0.08 weight percent”.

The record behind these values is patent US6866861B1, “Method and composition for enhancing milk component concentrations” (Land O'Lakes, Inc., priority 1999, dated 2005).
